Reference: US20230085307A1, “PYRIDAZINONE COMPOUND AND HERBICIDE” (NISSAN CHEMICAL CORPORATION, priority 2019, published 2023)

What was measured:
[1] = system: late watergrass; test: Test Example 1: herbicidal activity, application before weed generation under submerged conditions (Table 16, symbol A); format: in vivo, late watergrass (Echinochloa oryzicola)
Summary of the method: (§1)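 Alluvial soil was flooded to 4 cm depth, weed seeds were sown mixed and 2.5-leaf rice seedlings were transplanted. On sowing day, the compound's emulsion, diluted in water to a set dose, was applied to the water surface. Plants grew at 25–30 °C and were scored 0–5 after three weeks.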

[2] = system: Japanese bulrush; test: Test Example 1: herbicidal activity, application before weed generation under submerged conditions (Table 16, symbol B); format: in vivo, Japanese bulrush (Schoenoplectus juncoides)
Summary of the method: as §1

[3] = system: barnyard grass; test: Test Example 3: herbicidal effect by foliage application, Wagner pot (Table 18, symbol H); format: in vivo, barnyard grass (Echinochloa crus-galli)
Summary of the method: (§2)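 Plants were sown in alluvial soil held under 0.1–0.5 cm standing water and grown 14 days in a greenhouse at 25–30 °C. An emulsifiable formulation, water-diluted to the set dose, was then sprayed onto the foliage, and effects were scored three weeks later using previously defined criteria.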

[4] = system: Chinese sprangletop; test: Test Example 3: herbicidal effect by foliage application, Wagner pot (Table 18, symbol D); format: in vivo, chinese sprangletop (Leptochloa chinensis)
Summary of the method: as §2

[5] = system: rice flat sedge; test: Test Example 3: herbicidal effect by foliage application, Wagner pot (Table 18, symbol E); format: in vivo, rice flat sedge (Cyperus iria)
Summary of the method: as §2

[6] = system: southern crabgrass; test: Test Example 4: herbicidal effect by soil treatment (Table 19, symbol F); format: in vivo, southern crabgrass (Digitaria ciliaris)
Summary of the method: (§3)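 Scoring uses the grading scale of an earlier test, three weeks post-application. Treatment consists of spraying a diluted emulsion formulation across the surface of sterilized diluvial soil in which seeds are buried near 1.5 cm deep; boxes are kept in a greenhouse between 25° C. and 30° C.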

[7] = system: green foxtail; test: Test Example 4: herbicidal effect by soil treatment (Table 19, symbol G); format: in vivo, green foxtail (Setaria viridis)
Summary of the method: as §3

[8] = system: blackgrass; test: Test Example 4: herbicidal effect by soil treatment (Table 19, symbol J); format: in vivo, blackgrass (Alopecurus myosuroides)
Summary of the method: as §3

[9] = system: redroot pigweed; test: Test Example 4: herbicidal effect by soil treatment (Table 19, symbol N); format: in vivo, redroot pigweed (Amaranthus retroflexus)
Summary of the method: as §3

[10] = system: green foxtail; test: Test Example 5: herbicidal effect by foliage application, plastic box (Table 20, symbol G); format: in vivo, green foxtail (Setaria viridis); details: foliage application, three weeks after application
Summary of the method: (§4)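 Post-emergence foliar test in sterilized diluvial soil. Compound applied as water-diluted emulsion at a predetermined rate to 14-day-old plants; evaluation at three weeks.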

[11] = system: barnyard grass; test: Test Example 5: herbicidal effect by foliage application, plastic box (Table 20, symbol H); format: in vivo, barnyard grass (Echinochloa crus-galli); details: foliage application, three weeks after application
Summary of the method: as §4

[12] = system: blackgrass; test: Test Example 5: herbicidal effect by foliage application, plastic box (Table 20, symbol J); format: in vivo, blackgrass (Alopecurus myosuroides); details: foliage application, three weeks after application
Summary of the method: as §4

[13] = system: Italian ryegrass; test: Test Example 5: herbicidal effect by foliage application, plastic box (Table 20, symbol K); format: in vivo, Italian ryegrass (Lolium multiflorum); details: foliage application, three weeks after application
Summary of the method: as §4

[14] = system: windgrass; test: Test Example 5: herbicidal effect by foliage application, plastic box (Table 20, symbol L); format: in vivo, windgrass (Apera spica-venti); details: foliage application, three weeks after application
Summary of the method: as §4

[15] = system: velvetleaf; test: Test Example 5: herbicidal effect by foliage application, plastic box (Table 20, symbol M); format: in vivo, velvetleaf (Abutilon theophrasti); details: foliage application, three weeks after application
Summary of the method: as §4

[16] = system: lambsquarters; test: Test Example 5: herbicidal effect by foliage application, plastic box (Table 20, symbol O); format: in vivo, lambsquarters (Chenopodium album); details: foliage application, three weeks after application
Summary of the method: as §4

[17] = system: persian speedwell; test: Test Example 5: herbicidal effect by foliage application, plastic box (Table 20, symbol R); format: in vivo, Persian speedwell (Veronica persica); details: foliage application, three weeks after application
Summary of the method: as §4

[18] = amount of applied herbicide 390 g/ha
[19] = amount of applied herbicide 320 g/ha

Row | SMILES | Herbicidal effect, A: late watergrass [1, 19] | Herbicidal effect, B: Japanese bulrush [2, 19] | Herbicidal effect on H (barnyard grass), foliage application [3, 19] | Herbicidal effect on D (Chinese sprangletop), foliage application [4, 19] | Herbicidal effect on E (rice flat sedge), foliage application [5, 19] | F: southern crabgrass, herbicidal effect grade [6, 19] | G: green foxtail, herbicidal effect grade [7, 19] | J: blackgrass, herbicidal effect grade [8, 19] | N: redroot pigweed, herbicidal effect grade [9, 19] | herbicidal effect on green foxtail (G) ([10]; 320 g/ha) | herbicidal effect on barnyard grass (H) ([11]; 320 g/ha) | herbicidal effect on blackgrass (J) ([12]; 320 g/ha) | herbicidal effect on Italian ryegrass (K) ([13]; 320 g/ha) | herbicidal effect on windgrass (L) ([14]; 320 g/ha) | herbicidal effect on velvetleaf (M) ([15]; 320 g/ha) | herbicidal effect on lambsquarters (O) ([16]; 320 g/ha) | herbicidal effect on persian speedwell (R) ([17]; 320 g/ha) | other results
1 | CCCC(=O)Oc1c(C)nn(C)c(=O)c1-c1c(-c2ccc(F)cc2)oc2ccc(C)cc12 [9-005] | – | – | – | – | – | – | – | – | – | – | – | – | – | – | – | – | – | Herbicidal effect, A: late watergrass [1, 18]: 5 (Herbicidal rate of 90% or more (almost completely withered)); Herbicidal effect, B: Japanese bulrush [2, 18]: 4 (Herbicidal rate of 70% or more and less than 90%); Herbicidal effect on H (barnyard grass), foliage application [3, 18]: 3 (Herbicidal rate of 40% or more and less than 70%); Herbicidal effect on D (Chinese sprangletop), foliage application [4, 18]: 0 (Herbicidal rate of 5% or less (almost no effect)); Herbicidal effect on E (rice flat sedge), foliage application [5, 18]: 2 (Herbicidal rate of 20% or more and less than 40%); F: southern crabgrass, herbicidal effect grade [6, 18]: 0 (Herbicidal rate of 5% or less (almost no effect)); G: green foxtail, herbicidal effect grade [7, 18]: 0 (Herbicidal rate of 5% or less (almost no effect)); J: blackgrass, herbicidal effect grade [8, 18]: 0 (Herbicidal rate of 5% or less (almost no effect)); N: redroot pigweed, herbicidal effect grade [9, 18]: 3 (Herbicidal rate of 40% or more and less than 70%); herbicidal effect on green foxtail (G) ([10]; 390 g/ha): 0 (Herbicidal rate of 5% or less (almost no effect)); herbicidal effect on barnyard grass (H) ([11]; 390 g/ha): 0 (Herbicidal rate of 5% or less (almost no effect)); herbicidal effect on blackgrass (J) ([12]; 390 g/ha): 0 (Herbicidal rate of 5% or less (almost no effect)); herbicidal effect on Italian ryegrass (K) ([13]; 390 g/ha): 4 (Herbicidal rate of 70% or more and less than 90%); herbicidal effect on windgrass (L) ([14]; 390 g/ha): 0 (Herbicidal rate of 5% or less (almost no effect)); herbicidal effect on velvetleaf (M) ([15]; 390 g/ha): 5 (Herbicidal rate of 90% or more (almost completely withered)); herbicidal effect on lambsquarters (O) ([16]; 390 g/ha): 3 (Herbicidal rate of 40% or more and less than 70%); herbicidal effect on persian speedwell (R) ([17]; 390 g/ha): 5 (Herbicidal rate of 90% or more (almost completely withered))
2 | COc1ccc(-c2oc3ccc(C)cc3c2-c2c(O)c(C)nn(C)c2=O)cc1 [9-007] | 5 (Herbicidal rate of 90% or more (almost completely withered)) | 5 (Herbicidal rate of 90% or more (almost completely withered)) | 4 (Herbicidal rate of 70% or more and less than 90%) | 1 (Herbicidal rate of 5% or more and less than 20%) | 5 (Herbicidal rate of 90% or more (almost completely withered)) | 5 (Herbicidal rate of 90% or more (almost completely withered)) | 3 (Herbicidal rate of 40% or more and less than 70%) | 4 (Herbicidal rate of 70% or more and less than 90%) | 5 (Herbicidal rate of 90% or more (almost completely withered)) | 4 (Herbicidal rate of 70% or more and less than 90%) | 4 (Herbicidal rate of 70% or more and less than 90%) | 4 (Herbicidal rate of 70% or more and less than 90%) | 5 (Herbicidal rate of 90% or more (almost completely withered)) | 4 (Herbicidal rate of 70% or more and less than 90%) | 5 (Herbicidal rate of 90% or more (almost completely withered)) | 5 (Herbicidal rate of 90% or more (almost completely withered)) | 5 (Herbicidal rate of 90% or more (almost completely withered)) | –
3 | CCCC(=O)Oc1c(C)nn(C)c(=O)c1-c1c(-c2ccc(OC)cc2)oc2ccc(C)cc12 [9-008] | 5 (Herbicidal rate of 90% or more (almost completely withered)) | 5 (Herbicidal rate of 90% or more (almost completely withered)) | 2 (Herbicidal rate of 20% or more and less than 40%) | 3 (Herbicidal rate of 40% or more and less than 70%) | 5 (Herbicidal rate of 90% or more (almost completely withered)) | 3 (Herbicidal rate of 40% or more and less than 70%) | 2 (Herbicidal rate of 20% or more and less than 40%) | 0 (Herbicidal rate of 5% or less (almost no effect)) | 5 (Herbicidal rate of 90% or more (almost completely withered)) | 3 (Herbicidal rate of 40% or more and less than 70%) | 3 (Herbicidal rate of 40% or more and less than 70%) | 1 (Herbicidal rate of 5% or more and less than 20%) | 5 (Herbicidal rate of 90% or more (almost completely withered)) | 0 (Herbicidal rate of 5% or less (almost no effect)) | 5 (Herbicidal rate of 90% or more (almost completely withered)) | 4 (Herbicidal rate of 70% or more and less than 90%) | 5 (Herbicidal rate of 90% or more (almost completely withered)) | –
4 | CCOc1ccc(-c2oc3ccc(F)cc3c2-c2c(O)c(C)nn(C)c2=O)cc1 [9-021] | 5 (Herbicidal rate of 90% or more (almost completely withered)) | 5 (Herbicidal rate of 90% or more (almost completely withered)) | 3 (Herbicidal rate of 40% or more and less than 70%) | 3 (Herbicidal rate of 40% or more and less than 70%) | 5 (Herbicidal rate of 90% or more (almost completely withered)) | 4 (Herbicidal rate of 70% or more and less than 90%) | 4 (Herbicidal rate of 70% or more and less than 90%) | 4 (Herbicidal rate of 70% or more and less than 90%) | 5 (Herbicidal rate of 90% or more (almost completely withered)) | 4 (Herbicidal rate of 70% or more and less than 90%) | 3 (Herbicidal rate of 40% or more and less than 70%) | 1 (Herbicidal rate of 5% or more and less than 20%) | 5 (Herbicidal rate of 90% or more (almost completely withered)) | 0 (Herbicidal rate of 5% or less (almost no effect)) | 5 (Herbicidal rate of 90% or more (almost completely withered)) | 3 (Herbicidal rate of 40% or more and less than 70%) | 5 (Herbicidal rate of 90% or more (almost completely withered)) | –
5 | CCCOc1ccc(-c2oc3ccc(F)cc3c2-c2c(O)c(C)nn(C)c2=O)cc1 [9-023] | 5 (Herbicidal rate of 90% or more (almost completely withered)) | 5 (Herbicidal rate of 90% or more (almost completely withered)) | 5 (Herbicidal rate of 90% or more (almost completely withered)) | 3 (Herbicidal rate of 40% or more and less than 70%) | 5 (Herbicidal rate of 90% or more (almost completely withered)) | 4 (Herbicidal rate of 70% or more and less than 90%) | 5 (Herbicidal rate of 90% or more (almost completely withered)) | 0 (Herbicidal rate of 5% or less (almost no effect)) | 5 (Herbicidal rate of 90% or more (almost completely withered)) | 5 (Herbicidal rate of 90% or more (almost completely withered)) | 5 (Herbicidal rate of 90% or more (almost completely withered)) | 4 (Herbicidal rate of 70% or more and less than 90%) | 5 (Herbicidal rate of 90% or more (almost completely withered)) | 4 (Herbicidal rate of 70% or more and less than 90%) | 5 (Herbicidal rate of 90% or more (almost completely withered)) | 5 (Herbicidal rate of 90% or more (almost completely withered)) | 5 (Herbicidal rate of 90% or more (almost completely withered)) | –
